Experimental data from the supplement of paper PMC5579334.

Legend:
HS-PSS [1] = assay: drug sensitivity score (DSS, CellTiter-Glo viability, 72 h) (DSS (dimensionless)); higher = more sensitive; extreme values may be limits of the assay
Summary of the method: (§1)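 Viability of MPNST cell lines and primary human Schwann cells was read as CellTiter-Glo ATP luminescence after 72 h at 37 °C, 5% CO2, in 384-well plates seeded with 750–1000 cells per well. Each compound had been preprinted at five concentrations in 10-fold steps. Signals were scaled between vehicle and positive-control wells, duplicates averaged where present, and fitted with four-parameter logistic curves. Drug sensitivity score and relative IC50 (censored at the top concentration) come from those fits, and percent inhibition is taken at the top concentration.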

HS-Sch-2 [2] = assay: as above
Summary of the method: as §1

YST-1 [3] = assay: as above
Summary of the method: as §1

HS-PSS [4] = assay: drug sensitivity score (DSS, CellTox-Green cytotoxicity, 72 h) (DSS (dimensionless)); higher = more cytotoxic; extreme values may be limits of the assay
Summary of the method: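 MPNST cell lines and primary human Schwann cells were grown for 72 h at 37 °C in 384-well plates containing five 10-fold compound dilutions. CellTox-Green, added before seeding at a final 1:1000 dilution, gave fluorescence from DNA released by disrupted cells, and signals were scaled to vehicle and positive-control wells. Curves were fitted with a four-parameter logistic model. Drug sensitivity score and relative IC50 come from these fits, with IC50 censored at the top concentration.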

HS-PSS [5] = assay: % inhibition of CellTiter-Glo viability at highest tested concentration (72 h), relative to DMSO and benzethonium chloride controls; higher = more inhibition
Summary of the method: as §1

HS-Sch-2 [6] = assay: as above
Summary of the method: as §1

YST-1 [7] = assay: as above
Summary of the method: as §1

| SMILES | drug sensitivity score (HS-PSS [1]) | drug sensitivity score (HS-Sch-2 [2]) | drug sensitivity score (YST-1 [3]) | drug sensitivity score (HS-PSS [4]) | % inhibition (HS-PSS [5]) [%] | % inhibition (HS-Sch-2 [6]) [%] | % inhibition (YST-1 [7]) [%] |
| --- | --- | --- | --- | --- | --- | --- | --- |
| Cc1[nH]c(/C=C2\C(=O)Nc3ccccc32)c(C)c1CCC(=O)O [Orantinib] (max concentration tested 10000 nM) | 0.29 | 0 | 0.72 | 20.3 | 15 | 0.75 | 20 |
| CNC(=O)c1ccc2cc([C@@]3(O)CCn4cncc43)ccc2c1 [Orteronel] (max concentration tested 10000 nM) | 0 | 0 | 0 | 0 | -7 | -4.34 | 7.23 |
| C=CC(=O)Nc1cc(Nc2nccc(-c3cn(C)c4ccccc34)n2)c(OC)cc1N(C)CCN(C)C [Osimertinib] (max concentration tested 2500 nM) | 5.5 | 4.21 | 6.9 | 0.95 | 66.3 | 73.2 | 63.7 |
| O=C(O)C(=O)O.[NH-][C@@H]1CCCC[C@H]1[NH-].[Pt+2] [Oxaliplatin] (max concentration tested 100000 nM) | 8.54 | 11.4 | 19.6 | 3.02 | 69.2 | 100 | 97.7 |
| CN1CCN(c2cc(C(=O)Nc3ccc4c(c3)-c3c(c(C(N)=O)nn3-c3ccc(F)cc3)CC4)c(Cl)cn2)CC1 [PHA 408] (max concentration tested 10000 nM) | 7.02 | 5.4 | 5.73 | 4.95 | 101 | 99.8 | 99.9 |
| CCn1nnc2c(N3CCOCC3)nc(-c3ccc(NC(=O)Nc4ccc(C(=O)N5CCN(C)CC5)cc4)cc3)nc21 [PKI-402] (max concentration tested 2500 nM) | 15.3 | 12.4 | 17.3 | 0.89 | 75.8 | 75.5 | 90.9 |
| O=C(Nc1cc(Cl)cc2c1[nH]c1cnccc12)c1cccnc1 [PS-1145] (max concentration tested 25000 nM) | 0.49 | 0 | 3.62 | 0 | 13.7 | 5.78 | 16.9 |
| COc1cc(Br)c(Nc2nc(-c3c(C)nc4ncccn34)cs2)c(Br)c1 [PTC-209] (max concentration tested 10000 nM) | 7.63 | 7.96 | 6.29 | 0 | 84.8 | 81 | 94.4 |
| C1=N/C2=N/c3ccc(OCCN4CCCC4)c(c3)COC/C=C/COCc3cccc(c3)C(=C1)N2 [Pacritinib] (max concentration tested 10000 nM) | 10.8 | 8.63 | 8.15 | 4.15 | 99.4 | 99.6 | 100 |
| COc1ccc(COc2cc3oc(=O)c4cc(C(C)O)ccc4c3cc2OC)cc1 (stereo not given) [Palomid-529] (max concentration tested 10000 nM) | 0 | 0 | 0 | 0 | 2.33 | -4.31 | 10.2 |
| CCOc1cc2ncc(C#N)c(Nc3ccc(F)c(Cl)c3)c2cc1NC(=O)/C=C/CN(C)C [Pelitinib] (max concentration tested 2500 nM) | 12.8 | 11 | 4.87 | 1.05 | 73.9 | 89.6 | 47.9 |
| Nc1nc2[nH]cc(CCc3ccc(C(=O)N[C@@H](CCC(=O)O)C(=O)O)cc3)c2c(=O)[nH]1 [Pemetrexed] (max concentration tested 10000 nM) | 0 | 17.1 | 4.42 | 0 | 6.45 | 62.5 | 19.7 |
| CCCCCCCCCCCCCCCCCCOP(=O)([O-])OC1CC[N+](C)(C)CC1 [Perifosine] (max concentration tested 2500 nM) | 0 | 0 | 0 | 0 | 0.4 | 4.74 | -0.19 |
| FC(F)(F)c1ccc(CNc2ccc(Cc3c[nH]c4ncc(Cl)cc34)cn2)cn1 [Pexidartinib] (max concentration tested 10000 nM) | 1.79 | 0.57 | 0.84 | 0 | 25.9 | 18.9 | 17.3 |
| COc1ccc(Cl)c(Nc2nc3ccccc3nc2NS(=O)(=O)c2cccc(NC(=O)C(C)(C)N)c2)c1 [Pilaralisib] (max concentration tested 2500 nM) | 0 | 0.34 | 2.53 | 0 | 7.45 | 14.3 | 42.6 |
| CC(C)N(C[C@H]1O[C@@H](n2cnc3c(N)ncnc32)[C@H](O)[C@@H]1O)[C@H]1C[C@@H](CCc2nc3cc(C(C)(C)C)ccc3[nH]2)C1 [Pinometostat] (max concentration tested 1000 nM) | 0 | 0 | 0 | 0 | 5.45 | -7.39 | -2.52 |
| NCCNc1ccc(NCCN)c2c1C(=O)c1ccncc1C2=O [Pixantrone] (max concentration tested 10000 nM) | 4.51 | 2.43 | 2.81 | 0 | 77.4 | 50.7 | 54.6 |
| c1cc(CN2CCCNCCNCCCNCC2)ccc1CN1CCCNCCNCCCNCC1 [Plerixafor] (max concentration tested 10000 nM) | 0.55 | 0 | 0 | 0 | 14.2 | 5.96 | -8.03 |

| SMILES | drug sensitivity score (HS-PSS [1]) | drug sensitivity score (HS-Sch-2 [2]) | drug sensitivity score (YST-1 [3]) | drug sensitivity score (HS-PSS [4]) | % inhibition (HS-PSS [5]) [%] | % inhibition (HS-Sch-2 [6]) [%] | % inhibition (YST-1 [7]) [%] |
| --- | --- | --- | --- | --- | --- | --- | --- |
| C=CC(=O)N1CCC(Oc2cc3c(Nc4ccc(Cl)c(Cl)c4F)ncnc3cc2OC)CC1 [Poziotinib] (max concentration tested 1000 nM) | 0 | 0 | 0.25 | 0 | 6.52 | 3.19 | 12.9 |
| CCCCc1nc2cc(/C=C/C(=O)NO)ccc2n1CCN(CC)CC [Pracinostat] (max concentration tested 10000 nM) | 12.4 | 15.9 | 22 | 6.63 | 94 | 101 | 100 |
| CC[C@H](C)C(=O)O[C@H]1C[C@H](O)C=C2C=C[C@H](C)[C@H](CC[C@@H](O)C[C@@H](O)CC(=O)O)[C@H]21 [Pravastatin] (max concentration tested 10000 nM) | 1.44 | 0 | 0 | 0 | 24.1 | -3.68 | 0.31 |
| COc1cccc(OCCCN)c1-c1cc(Nc2cnc(C#N)cn2)n[nH]1 [Prexasertib] (max concentration tested 10000 nM) | 6.05 | 29.9 | 22.2 | 0.01 | 70 | 88.6 | 76.3 |
| Cc1cc(-c2ncc(-c3cccnc3)cc2/C=C/c2ccccc2)cnc1-c1cccnc1 [Pyridoclax] (max concentration tested 25000 nM) | 0.36 | 1.52 | 16.5 | 0 | 9.44 | 19.9 | 62.7 |
| CCNC(=O)Nc1ccc(-c2nc3c(c(N4CCOC[C@@H]4C)n2)CCN(C2COC2)C3)cc1 [RG-7603] (max concentration tested 2500 nM) | 1.5 | 3.02 | 6.56 | 0 | 32.4 | 33.8 | 56.2 |
| Nc1cc(F)ccc1NC(=O)/C=C/c1cnn(C/C=C/c2ccccc2)c1 [RGFP966] (max concentration tested 10000 nM) | 4.21 | 4.52 | 5.15 | 0 | 33.2 | 52.7 | 55.7 |
| C[C@@H]1C[C@H]2O[C@@H]2/C=C\C=C\C(=O)Cc2c(Cl)c(O)cc(O)c2C(=O)O1 [Radicicol] (max concentration tested 10000 nM) | 12.9 | 16.3 | 12.1 | 4.33 | 86.2 | 99.8 | 94 |
| Cc1nc(=O)c2cc(CN(C)c3ccc(C(=O)N[C@@H](CCC(=O)O)C(=O)O)s3)ccc2[nH]1 [Raltitrexed] (max concentration tested 1000 nM) | 3.16 | 15.1 | 6.69 | 0 | 14.7 | 71.5 | 29.9 |
| CN(C)Cc1ccc(S(=O)(=O)n2ccc(/C=C/C(=O)NO)c2)cc1 [Resminostat] (max concentration tested 10000 nM) | 6.36 | 7.57 | 13.8 | 2.12 | 84.1 | 100 | 101 |
| CN(C)C(=O)c1cc2cnc(Nc3ccc(N4CCNCC4)cn3)nc2n1C1CCCC1 [Ribociclib] (max concentration tested 10000 nM) | 1.83 | 1.85 | 6.07 | 0 | 28.2 | 25.4 | 67 |
| COc1cc(OC)c(/C=C/S(=O)(=O)Cc2ccc(OC)c(NCC(=O)O)c2)c(OC)c1 [Rigosertib] (max concentration tested 10000 nM) | 14.8 | 21.8 | 21.8 | 0 | 61.8 | 87.6 | 79.3 |
| C=CC(=O)Nc1cccc(Nc2nc(Nc3ccc(N4CCN(C(C)=O)CC4)cc3OC)ncc2C(F)(F)F)c1 [Rociletinib] (max concentration tested 10000 nM) | 4.91 | 4.99 | 8.73 | 3.25 | 86.4 | 80.9 | 95.2 |
| O=C(CCCCCCNC(=O)c1cnc(N(c2ccccc2)c2ccccc2)nc1)NO [Rocilinostat] (max concentration tested 10000 nM) | 3.58 | 6.66 | 9.5 | 0.39 | 58.4 | 81.2 | 89.5 |
| C/C=C1\NC(=O)[C@H]2CSSCC/C=C/[C@H](CC(=O)N[C@H](C(C)C)C(=O)N2)OC(=O)[C@H](C(C)C)NC1=O [Romidepsin] (max concentration tested 1000 nM) | 5.59 | 33 | 37.8 | 3.93 | 95.4 | 100 | 98.5 |
| COc1ccc(CCc2nc3cc(-c4c(C)noc4C)ccc3n2C[C@H](C)N2CCOCC2)cc1Cl [SGC-CBP30] (max concentration tested 25000 nM) | 1.59 | 5.7 | 5.72 | 0 | 40.4 | 60.7 | 62 |
| CN1CCC(CNc2ccc3ncc(-c4cccc(OC(F)(F)F)c4)n3n2)CC1 [SGI-1776] (max concentration tested 10000 nM) | 6.88 | 7.09 | 9 | 6.8 | 101 | 101 | 101 |
